PubChem BioAssay AID1963870 (Molecular Pharmacology Branch, DTP, NCI, 2024)
pIC50: −log10 of the molar value.

Tested on: 292921-168-R-J2-PDC KRAS tumor spheroid viability
Assay: Anticancer human tumor 292921-168-R-J2-PDC patient-derived pancreatic carcinoma cell line growth inhibition [KRAS2]
Conditions: spheroids with HUVEC and MSC; for pIC50: curve of first compound; for viability, T/C: stronger effect = lower value
Procedure, shortened: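 Combination screen of spheroid viability in tumor-cell co-cultures with endothelial (HUVEC) and mesenchymal stem cell stroma. Each agent was tested in half-log dilutions, topping at clinical Cmax or at 10 microM without a known Cmax.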

[1] = second compound 0.1 µM, first compound 0.01 µM
[2] = second compound 0.1 µM, first compound 0.0316 µM
[3] = second compound 0.1 µM, first compound 0.1 µM
[4] = second compound 0.1 µM, first compound 0.316 µM
[5] = second compound 0.1 µM, first compound 1 µM
[6] = second compound 0.1 µM, first compound 3.16 µM
[7] = second compound 0.316 µM, first compound 0.01 µM
[8] = second compound 0.316 µM, first compound 0.0316 µM
[9] = second compound 0.316 µM, first compound 0.1 µM
[10] = second compound 0.316 µM, first compound 0.316 µM
[11] = second compound 0.316 µM, first compound 1 µM
[12] = second compound 0.316 µM, first compound 3.16 µM
[13] = second compound 1 µM, first compound 0.01 µM
[14] = second compound 1 µM, first compound 0.0316 µM
[15] = second compound 1 µM, first compound 0.1 µM
[16] = second compound 1 µM, first compound 0.316 µM
[17] = second compound 1 µM, first compound 1 µM
[18] = second compound 1 µM, first compound 3.16 µM
[19] = second compound 3.16 µM, first compound 0.01 µM
[20] = second compound 3.16 µM, first compound 0.0316 µM
[21] = second compound 3.16 µM, first compound 0.1 µM
[22] = second compound 3.16 µM, first compound 0.316 µM
[23] = second compound 3.16 µM, first compound 1 µM
[24] = second compound 3.16 µM, first compound 3.16 µM
[25] = second compound 10 µM, first compound 0.01 µM
[26] = second compound 10 µM, first compound 0.0316 µM
[27] = second compound 10 µM, first compound 0.1 µM
[28] = second compound 10 µM, first compound 0.316 µM
[29] = second compound 10 µM, first compound 1 µM
[30] = second compound 10 µM, first compound 3.16 µM
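Note: drug exposure lasted seven days after spheroids formed for three days.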
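Throughout, for viability, T/C: percent of DMSO vehicle control viability which is 100%.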

CC1COCCN1c1cc(-c2ccnn2C)c2ccnc(-c3ccn[nH]3)c2n1 (stereo not given) + CC1OCC2(CCN(c3cnc(Sc4ccnc(N)c4Cl)c(N)n3)CC2)C1N
pIC50 (second compound 0.1 µM): > 8.00
pIC50 (second compound 0.316 µM): > 8.00
pIC50 (second compound 1 µM): > 8.00
pIC50 (second compound 3.16 µM): > 8.00
pIC50 (second compound 10 µM): > 8.00
viability, T/C [1]: 44.6%
viability, T/C [2]: 23.8%
viability, T/C [3]: 15.9%
viability, T/C [4]: 15%
viability, T/C [5]: 15%
viability, T/C [6]: 16.2%
viability, T/C [7]: 38.9%
viability, T/C [8]: 20.6%
viability, T/C [9]: 14.6%
viability, T/C [10]: 13%
viability, T/C [11]: 13.3%
viability, T/C [12]: 14.5%
viability, T/C [13]: 33.5%
viability, T/C [14]: 21.9%
viability, T/C [15]: 13.4%
viability, T/C [16]: 12.3%
viability, T/C [17]: 12.3%
viability, T/C [18]: 12.3%
viability, T/C [19]: 28.2%
viability, T/C [20]: 17.8%
viability, T/C [21]: 13.4%
viability, T/C [22]: 11%
viability, T/C [23]: 10.2%
viability, T/C [24]: 10.9%
viability, T/C [25]: 25.3%
viability, T/C [26]: 18.2%
viability, T/C [27]: 13.1%
viability, T/C [28]: 10.2%
viability, T/C [29]: 10.7%
viability, T/C [30]: 9.89%

CC(=O)OC12COC1CC(O)C1(C)C(=O)C(O)C3=C(C)C(OC(=O)C(O)C(NC(=O)OC(C)(C)C)c4ccccc4)CC(O)(C(OC(=O)c4ccccc4)C21)C3(C)C (stereo not given) + C=CC(=O)N1CCN(c2nc(=O)n(-c3c(C)ccnc3C(C)C)c3nc(-c4c(O)cccc4F)c(F)cc23)C(C)C1
pIC50 (second compound 0.1 µM): > 8.00
pIC50 (second compound 0.316 µM): > 8.00
pIC50 (second compound 1 µM): > 8.00
pIC50 (second compound 3.16 µM): > 8.00
pIC50 (second compound 10 µM): > 8.00
viability, T/C [1]: 14.6%
viability, T/C [2]: 15.4%
viability, T/C [3]: 14.2%
viability, T/C [4]: 12.3%
viability, T/C [5]: 14.5%
viability, T/C [6]: 17.3%
viability, T/C [7]: 12.9%
viability, T/C [8]: 17.1%
viability, T/C [9]: 13%
viability, T/C [10]: 13.1%
viability, T/C [11]: 13.7%
viability, T/C [12]: 18.3%
viability, T/C [13]: 17.1%
viability, T/C [14]: 17.5%
viability, T/C [15]: 14.9%
viability, T/C [16]: 12.9%
viability, T/C [17]: 14.4%
viability, T/C [18]: 19.1%
viability, T/C [19]: 18.1%
viability, T/C [20]: 18.2%
viability, T/C [21]: 16.9%
viability, T/C [22]: 15.7%
viability, T/C [23]: 16.1%
viability, T/C [24]: 17.9%
viability, T/C [25]: 20.5%
viability, T/C [26]: 18.4%
viability, T/C [27]: 16.6%
viability, T/C [28]: 15.3%
viability, T/C [29]: 15.7%
viability, T/C [30]: 17.2%

CC(=O)OC12COC1CC(O)C1(C)C(=O)C(O)C3=C(C)C(OC(=O)C(O)C(NC(=O)OC(C)(C)C)c4ccccc4)CC(O)(C(OC(=O)c4ccccc4)C21)C3(C)C (stereo not given) + C=CC(=O)N1CCN(c2nc(OCC3CCCN3C)nc3c2CCN(c2cccc4cccc(C)c24)C3)CC1CC#N
pIC50 (second compound 0.0316 µM): > 8.00
pIC50 (second compound 0.1 µM): > 8.00
pIC50 (second compound 0.316 µM): > 8.00
pIC50 (second compound 1 µM): > 8.00
pIC50 (second compound 3.16 µM): > 8.00
viability, T/C (second compound 0.0316 µM, first compound 0.01 µM): 12.8%
viability, T/C (second compound 0.0316 µM, first compound 0.0316 µM): 14.4%
viability, T/C (second compound 0.0316 µM, first compound 0.1 µM): 10.5%
viability, T/C (second compound 0.0316 µM, first compound 0.316 µM): 11.3%
viability, T/C (second compound 0.0316 µM, first compound 1 µM): 13.3%
viability, T/C (second compound 0.0316 µM, first compound 3.16 µM): 17.1%
viability, T/C [1]: 13.8%
viability, T/C [2]: 12%
viability, T/C [3]: 9.84%
viability, T/C [4]: 9.08%
viability, T/C [5]: 12.5%
viability, T/C [6]: 14.9%
viability, T/C [7]: 11.8%
viability, T/C [8]: 9.96%
viability, T/C [9]: 8.56%
viability, T/C [10]: 9.75%
viability, T/C [11]: 15.3%
viability, T/C [12]: 14.3%
viability, T/C [13]: 8.08%
viability, T/C [14]: 6.89%
viability, T/C [15]: 6.48%
viability, T/C [16]: 7.06%
viability, T/C [17]: 6.74%
viability, T/C [18]: 7.91%
viability, T/C [19]: 15.1%
viability, T/C [20]: 13.7%
viability, T/C [21]: 11.1%
viability, T/C [22]: 11.6%
viability, T/C [23]: 14%
viability, T/C [24]: 18.2%
